{
  "source": "patent US20090325863A1",
  "about": "“Somatostatin analogs and IGF-I inhibition for breast cancer prevention” (priority 2008, published 2009)",
  "key": {"[1]": {"tested_on": "hyperplastic lesions, LCIS and DCIS of human mammary gland", "test": "Proof of principle clinical trial, biopsies before and after treatment (Ki67, TUNEL)", "type": "in vivo", "from_the_text": "Background: Antiestrogens or aromatase inhibitors are used for breast cancer chemoprevention. These treatments cause unpleasant side effects including hot flashes and vaginal dryness. We have previously shown that IGF-I is required to permit estrogen and progesterone action in the mammary gland. […] Menopausal symptoms would not likely to occur with SOM230 since estrogen is not lowered. Material and Methods: We have approached this issue in several ways. 1) We developed a model of hyperplasia in hypophysectomized and oophorectomized female rats. Hyperplasia was induced by treatment with 600 mcg hGH and follicular phase concentrations of estradiol. Hyperplasia was assessed histologically in sections of mammary gland. 2) To assess translatability to humans we assessed cell proliferation and apoptosis in normal human breast from reduction mammoplasties and samples of usual hyperplasia. 3) We also determined availability of SST receptors in samples of atypical ductal hyperplasia and DCIS, and 4) We have begun to determine whether SOM230 will prevent hyperplasia in humans at risk for breast cancer as it does in rats.\nA proof of principle clinical trial is underway to further confirm whether SOM230 inhibits cell proliferation and increases apoptosis in human mammary gland as it does in rats. Data is presently available on 11 enlisted subjects. All patients had atypical hyperplasia on core biopsy and were given 600 ug SOM230 twice daily by injection. Data is available on 8 patients who had forms of hyperplasia that increase the likelihood of developing breast cancer. […] The effect of SOM230 on apoptosis and cell proliferation in hyperplastic lesions in the 8 patients is graphed in FIG. 17. This was also true in 2 cases of LCIS, a pre-cancerous condition, and one case of ductal carcinoma in situ, a cancerous situation. Apoptosis and cell proliferation is graphed for the 2 lobular hyperplasia patients in FIG. 18. FIG. 19 provides a DCIS patient sample cell staining for TUNEL and Ki67 before and after SOM230 administration. DCIS is a very common type of noninvasive breast cancer in women. Thus, human beings respond to SOM230 by inhibiting IGF-I action in the mammary gland. Taken together with our data on relative effects of SOM230 and Tamoxifen our data provide evidence that SOM230 will be at least as effective in preventing or treating breast cancer as Tamoxifen."}, "[2]": {"tested_on": "TUNEL labeled cells in mammary gland", "test": "Apoptosis by TUNEL staining in mammary gland, hGH+E2 model", "type": "in vivo, rat", "settings": "for % TUNEL labeled cells, DH structure Mod + mild / % TUNEL labeled cells, Normal gland: 3 animals, 7 days; for % TUNEL labeled cells, DH structure Mod + mild: hGH + E2 control 1.9 ± 0.2 (P < 0.002); for % TUNEL labeled cells, Normal gland: hGH + E2 control 2.3 ± 0.1 (P < 0.001); for apoptosis / cell death (in words): hGH+E2 model versus hGH+E2 control", "from_the_text": "We also looked at the effect of the various treatment regimens on apoptosis. GH+E2 inhibited apoptosis, with the results are as follows. […] The percent TUNEL labeled cells is depicted in TABLE 5 below."}, "[3]": {"tested_on": "hGH induced TEB formation", "test": "Hyperplastic terminal endbuds (TEBs) in mammary gland whole mounts, hGH+E2 model", "type": "in vivo, rat", "settings": "for TEB area: Table 2, mean of 3 animals, hGH + E control 43.1 ± 2.9, P 0.002", "from_the_text": "At the end of 7 days one lumbar mammary gland was removed for whole mount analysis and the other for histological analysis. Hyperplastic TEBs were counted in the whole mounts. […] Representative photomicrographs of the whole mounts are provided in FIG. 5 and suppression by the different treatments is shown graphically in FIG. 6."}, "SSTR-3": {"biological_target": "SSTR-3 (Homo sapiens, UniProt P32745)", "sequence (P32745 whole entry, species assumed)": "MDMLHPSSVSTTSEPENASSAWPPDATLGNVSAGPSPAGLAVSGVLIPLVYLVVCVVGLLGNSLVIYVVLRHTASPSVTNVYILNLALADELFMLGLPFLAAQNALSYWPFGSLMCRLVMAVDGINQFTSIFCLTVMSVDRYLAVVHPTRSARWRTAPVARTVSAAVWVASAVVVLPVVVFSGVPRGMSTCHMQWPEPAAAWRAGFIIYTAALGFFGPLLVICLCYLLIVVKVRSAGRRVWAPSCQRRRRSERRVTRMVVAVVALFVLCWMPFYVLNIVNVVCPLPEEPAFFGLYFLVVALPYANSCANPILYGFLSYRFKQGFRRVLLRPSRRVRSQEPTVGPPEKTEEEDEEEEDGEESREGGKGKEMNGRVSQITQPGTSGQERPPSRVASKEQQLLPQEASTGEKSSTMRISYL", "settings": "cited from earlier work"}, "[4]": {"tested_on": "pYIRS-1 (phosphorylated IRS-1), product of IGF-I action", "test": "Immunostaining for phosphorylated IRS-1 in mammary gland, hGH+E2 model", "type": "in vivo, rat", "settings": "hGH+E2 treated animals; staining most intense with hGH+E2", "from_the_text": "FIG. 12 depicts immunostaining for pYIRS-1 (phosphorylated IRS-1) in a representative E2 treated control (upper left), an hGH+E2 treated animal (upper right), an hGH+E2+SOM230 treated animal (lower left) and an hGH+E2+tamoxifen treated animal (lower right). The intensity of staining parallels IGF-I action as phosphorylated IRS-1 is a product of IGF-I action. In this study, staining (brown color) was most intense in response to hGH+E2 and was inhibited by both SOM230 and tamoxifen. […] This reflection of inhibition of IGF-I activity also supports the greater inhibitory effect of SOM230 over that of tamoxifen."}, "[5]": {"settings": "8 hyperplasia patients, 600 ug twice daily by injection, biopsy before/after"}, "[6]": {"settings": "lobular carcinoma in situ patients (2 cases), excisional versus core biopsy"}},
  "note": "“And” between values parts separate entries of the source, which are not always exact repeats. Equal entries are not always repeated. “Also recorded” adds a separate entry of the source. *1 amine or outer side, *2 acyl side, *3 side chain or, on linkers, in order; H or OH if unused. Where a SMILES comes first, the peptide text is derived from it. Side-chain parts run from the residue outwards. [ ]: non-standard residue; d: D form. The star is where a group is joined. Ethylenediamine = C(CN[*:2])N[*:1]; Hyp = O=C(O)[C@@H]1C[C@@H](O)CN1; Phg = N[C@H](C(=O)O)c1ccccc1; CO = O=C([*:1])[*:2]; Bn = c1ccc(C*)cc1",
  "data": [
    {"smiles": "NCCCC[C@@H]1NC(=O)[C@@H](Cc2c[nH]c3ccccc23)NC(=O)[C@H](c2ccccc2)NC(=O)[C@@H]2C[C@@H](OC(=O)NCCN)CN2C(=O)[C@H](Cc2ccccc2)NC(=O)[C@H](Cc2ccc(OCc3ccccc3)cc2)NC1=O", "note": "[SOM230] (cyclo([Hyp]([CO-Ethylenediamine])[Phg][dW]KY(Bn)F))", "values": [
      {"measurement": "apoptosis (TUNEL assay) in hyperplastic lesions", "setting": "[1]; [5]", "value": "increase in apoptosis"},
      {"measurement": "cell proliferation (Ki67 assay) in hyperplastic lesions", "setting": "[1]; [5]", "value": "inhibition of cell proliferation"},
      {"measurement": "apoptosis (TUNEL) in LCIS", "setting": "[1]; [6]", "value": "increased apoptosis"},
      {"measurement": "cell proliferation (Ki67) in LCIS", "setting": "[1]; [6]", "value": "decreased cell proliferation"},
      {"measurement": "% TUNEL labeled cells, DH structure Mod + mild", "setting": "[2]", "value": "increase in apoptosis"},
      {"measurement": "% TUNEL labeled cells, DH structure Mod + mild", "setting": "[2]; listed as SOM", "value": "5.5 ± 0.4", "unit": "%"},
      {"measurement": "% TUNEL labeled cells, Normal gland", "setting": "[2]", "value": "increase in apoptosis"},
      {"measurement": "% TUNEL labeled cells, Normal gland", "setting": "[2]; listed as SOM", "value": "6.5 ± 0.4", "unit": "%"},
      {"measurement": "apoptosis / cell death (in words)", "setting": "[2]", "value": "increase in cell death; also recorded: increase in apoptosis; also recorded: more apoptosis"},
      {"measurement": "apoptosis / cell death (in words)", "setting": "[2]; listed as SOM 230", "value": "increase in apoptosis"},
      {"measurement": "TEB area, individual animals", "setting": "[3]; Table 2, animal # 1-3, hGH + E controls 48549, 38496, 42285, listed as SOM", "value": "18816 and 13652 and 15356"},
      {"measurement": "TEB area", "setting": "[3]", "value": "reduced"},
      {"measurement": "TEB area", "setting": "[3]; listed as SOM", "value": "15.9 ± 1.5 (μm^2) × 10^3"},
      {"measurement": "number of hyperplastic TEBs in whole mounts", "setting": "[3]; hGH+E2, 7 days, reduced from 86.5 (86) TEBs in hGH+E2 control", "value": 27.5},
      {"measurement": "affinity for SSTR-3", "setting": "SSTR-3", "value": "has affinity"},
      {"measurement": "intensity of pYIRS-1 immunostaining", "setting": "[4]", "value": "inhibited"}
    ]}
  ]
}
